# Test system: HIV‐1 LTR (Jurkat^Tat LTR‐luciferase cell line)
# Assay: Jurkat^Tat LTR‐luciferase reporter assay for HIV‐1 latency reversal
# Type: cell-based
# Settings: Human immunodeficiency virus 1; 24 h treatment, percent activation relative to PMA
# Protocol: Activity of compounds identified for latency‐reversing activity in the primary screens was further validated by examining the effect of a single concentration (7 μM) on an alternative reporter cell line, bearing an integrated HIV‐1 reporter virus where luciferase expression is produced from the 5′ LTR, in cells constitutively expressing the viral TAT protein (Fig 2A), referred to as Jurkat^Tat LTR‐luciferase. Importantly, this cell line has the HIV‐1 reporter virus integrated at a different chromosomal location than that of the A1 J‐Lat cell line and also enables validation of provirus reactivation with a second enzymatic luciferase assay. In these assays, after 24‐h treatment we observed 10 compounds that produced significant induction of luciferase activity, including two compounds from the KD2 library, three from the CCBN library and five compounds from the DIVERSet. Compounds that produced significant effects in these secondary assays were re‐ordered from their respective suppliers and examined in more detail using the HIV‐luciferase reporter cell line. […] These five compounds represent diverse chemical structures (Fig 2G).
# Figure 2 Concentration–response analysis for five selected PH compounds • A Schematic representation of the pTY‐LAI‐luciferase reporter virus used in secondary screening assays, where luciferase expression is under the control of the 5′ LTR, in cloned lines derived from Jurkat^TAT cells bearing single‐copy integrants. • B–F Luciferase activity was measured from reporter cells treated for 24 h with the indicated compound concentrations. Results are presented as percent activation relative to PMA‐treated controls. The EC50 for each compound is indicated. Mean and standard error (SE) for the results are determined from three biological replicates (n = 3) and technical duplicates. • G Illustration of chemical structures of the PH compounds.
# Luciferase assays were performed in 96‐well plate format, where 100 μl of cell culture containing 1 × 10^5 luciferase reporter cells was plated per well. After the indicated time of treatment, 100 μl of luciferase assay reagent (SuperlightTM luciferase reporter Gene Assay Kit; BioAssay Systems) was added per well, and incubated for 2 min at RT, when luciferase activity was measured on a VictorTM X3 Multilabel Plate Reader. Results were presented relative to the positive control samples treated with 50 nM PMA. T‐cell activation was measured using 1 × 10^5 wild‐type Jurkat^Tat cells or PBMCs purified from healthy donors, treated as indicated. After 24 h, cells were incubated with 2.4G2 antibody to block nonspecific binding and further stained with 5 μl of anti‐human CD69 or an IgG1 isotype control antibody conjugated with PE‐Cy^Tm7. After 30‐min incubation on ice, the cells were washed twice with PBS and analyzed using a Becton Dickinson LSRII flow cytometer (BD Biosciences) to determine mean fluorescence intensity (MFI), using FlowJo software. The mean fluorescence intensity (MFI) obtained from cells stained with IgG isotype antibody control was subtracted from that from cells stained with CD69 to compensate for background (MFICD69‐MFIIgG). IL‐2 production was measured in cell culture supernatants using a human IL‐2 ELISA System (eBioscience). Jurkat^Tat clones bearing integrations of the mini‐dual HIV reporter virus, clone #11 and #131, were plated at 1 × 10^5 per well in a 96‐well plate format, treated for the indicated time, washed with 1 ml PBS, and then transferred into flow cytometry tubes, where they were fixed with freshly made 1% formaldehyde for 10 min at RT prior to analysis by flow cytometry. Results are presented as ΔMFI, where MFI obtained from parental Jurkat^Tat cells undergoing the same treated was subtracted from the MFI corresponding to each cell line; ΔMFI = (MFI compound‐treated cell line 131/11 − MFI compound‐treated WT Jurkat^Tat cells).
structure (smiles),measurement,value
"CC(=O)Oc1ccccc1N(C=C1Sc2ccccc2C1=O)C(C)=O [PH02, 2‐{acetyl[(3‐oxo‐1‐benzothien‐2(3H)‐ylidene)methyl]amino}phenyl acetate]",EC50,0.787 µM

# Source: article PMC5838563, “Compounds producing an effective combinatorial regimen for disruption of HIV‐1 latency” (EMBO Molecular Medicine, 2017)
